Article PMC9034021 (RSC Advances, 2021)

Key:
[1] = biological target: AChE (from Electrophorus electricus) (Electrophorus electricus, UniProt O42275); assay: biochemical; format: biochemical
[2] = biological target: BuChE (from equine serum) (Equus caballus, UniProt P81908); assay: BuChE inhibitory activity, Ellman's method with slight modification; format: biochemical
Sequence of BuChE (from equine serum) (P81908 whole entry): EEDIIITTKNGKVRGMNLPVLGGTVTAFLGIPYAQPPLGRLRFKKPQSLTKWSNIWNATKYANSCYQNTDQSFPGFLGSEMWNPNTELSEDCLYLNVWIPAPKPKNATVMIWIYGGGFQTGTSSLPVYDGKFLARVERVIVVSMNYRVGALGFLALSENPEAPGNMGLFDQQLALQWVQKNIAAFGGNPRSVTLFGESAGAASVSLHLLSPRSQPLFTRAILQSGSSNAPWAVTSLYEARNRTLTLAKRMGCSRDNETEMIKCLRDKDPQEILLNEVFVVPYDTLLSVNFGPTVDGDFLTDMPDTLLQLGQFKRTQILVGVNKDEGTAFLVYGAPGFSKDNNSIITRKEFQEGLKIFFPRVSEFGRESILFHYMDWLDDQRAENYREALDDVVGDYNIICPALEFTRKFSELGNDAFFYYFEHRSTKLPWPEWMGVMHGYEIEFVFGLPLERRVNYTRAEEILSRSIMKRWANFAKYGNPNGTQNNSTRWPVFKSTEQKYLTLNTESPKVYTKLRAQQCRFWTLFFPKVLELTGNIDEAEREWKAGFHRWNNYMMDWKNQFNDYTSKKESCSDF

Sequence of AChE (from Electrophorus electricus) (O42275 24-633): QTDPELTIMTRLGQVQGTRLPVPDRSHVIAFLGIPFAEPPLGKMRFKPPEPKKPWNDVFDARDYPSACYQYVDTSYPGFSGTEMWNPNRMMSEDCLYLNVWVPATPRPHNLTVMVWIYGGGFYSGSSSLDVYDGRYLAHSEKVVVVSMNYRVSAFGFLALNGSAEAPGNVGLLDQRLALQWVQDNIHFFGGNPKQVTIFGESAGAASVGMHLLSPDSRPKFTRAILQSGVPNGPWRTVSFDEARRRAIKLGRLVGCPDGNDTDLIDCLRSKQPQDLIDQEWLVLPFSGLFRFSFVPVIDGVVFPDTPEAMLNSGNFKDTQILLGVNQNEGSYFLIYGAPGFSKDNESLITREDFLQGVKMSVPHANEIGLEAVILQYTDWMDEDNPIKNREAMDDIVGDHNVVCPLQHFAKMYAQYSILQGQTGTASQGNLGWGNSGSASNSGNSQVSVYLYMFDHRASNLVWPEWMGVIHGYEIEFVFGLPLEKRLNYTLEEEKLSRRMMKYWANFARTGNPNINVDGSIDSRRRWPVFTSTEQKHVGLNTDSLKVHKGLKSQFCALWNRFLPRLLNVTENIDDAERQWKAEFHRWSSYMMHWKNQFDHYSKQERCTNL

Row | SMILES | IC50 [1] | IC50 [2] | also measured
1 | COc1cc2c(cc1O)C(Cc1ccc(O)cc1)NCC2 (stereo not shown) [Compound 44, coclaurine] | 40.9 ± 0.67 µM | 20.5 ± 0.42 µM | –
2 | COC1=C[C@]23CCN(C)[C@H](Cc4ccc(OC)c(O)c42)C3=CC1=O [Compound 45, salutaridine] | 7.49 ± 0.66 µM | – | –
3 | COc1ccc2c(c1OC)CC1c3c(cc4c(c3-2)OCO4)CCN1C (stereo not shown) [Compound 25, crebanine] | 17.4 ± 0.22 µM | 10.5 ± 0.27 µM | anti-AChE activity, fold less active than the 9,10-dimethoxy analogue 26 [1]: 2.8 fold; anti-BuChE activity, fold higher than that of 26 [2]: 2.5 fold
4 | COc1cc2c(cc1OC)[C@@H]1Cc3ccc(OC)c(OC)c3CN1CC2 [Compound 14, tetrahydropalmatine] | – | 65.3 ± 0.8 µM | –
5 | CN1CCc2cc3c(c4c2C1Cc1ccccc1-4)OCO3 (stereo not shown) [Compound 22, roemerine] | 8.32 ± 0.12 µM | 2.85 ± 0.08 µM | BuChE inhibition, fold more active than galanthamine [2]: approximately 1.3 fold
6 | COc1cc2c(cc1O)CC[n+]1cc3c(OC)c(OC)ccc3cc1-2 [Compound 18, jatrorrhizine] | 12.3 ± 0.44 µM | 31.46 ± 0.2 µM | –
7 | COc1cc2c(cc1O)[C@@H]1Cc3ccc(O)c(OC)c3CN1CC2 [Compound 12, stepholidine] | – | 221.2 ± 1.62 µM | –
8 | COc1cc2cc3c4c(cc5c(c4c2cc1OC)OCO5)CCN3C [Compound 42, dehydrodicentrine] | – | – | anti-BuChE activity, fold increase of the dehydroaporphine ([2]; relative to the aporphine group, comparator not named): 4.7 fold
9 | COc1cc2c(cc1OC)-c1c3c(cc4ccnc(c14)C2=O)OCO3 [Compound 35, dicentrinone] | 265.8 ± 0.8 µM | – | –
